{"source": "patent US12697368B2", "about": "“TSG6 polypeptide fragment for dry eye disease” (The University of Manchester, priority 2019, dated 2026)", "key": {"[1]": {"details": "interaction is cooperative; cited from earlier work"}, "[2]": {"test_system": "rat eyes", "details": "ethanol application and mechanical debridement; cited from earlier work"}, "[3]": {"test_system": "NOD.B10.H2b mice", "details": "recombinant TSG-6 (0.1%) topical 4 times a day, 1 week; vs 0.05% cyclosporine twice a day; cited from earlier work"}, "[4]": {"assay": "Aggregation state in PBS by dynamic light scattering (DLS)", "type": "physicochemical", "method": "(§1) The solubility and aggregation state of full-length TSG-6 and LINK_TSG6 in PBS were compared using UV spectrophotometry and dynamic light scattering (DLS) at a range of concentrations. […] The full-length protein had much lower solubility with less than 40% of the protein remaining in solution at 0.4, 0.8, 1.6. and 3.2 mg/ml."}, "[5]": {"assay": "Solubility in PBS by UV spectrophotometry", "type": "physicochemical", "method": "as §1"}}}
{"substance": "full-length TSG-6: full length human recombinant TSG-6 protein (R&D Systems), ~35 kDa secreted product of TNF-stimulated gene-6", "values": [{"measurement": "binding to HA compared with LINK_TSG6", "setting": "[1]", "value": "binds more effectively"}, {"measurement": "corneal opacity as compared to a PBS control", "setting": "[2]", "value": "reduced"}, {"measurement": "neovascularization as compared to a PBS control", "setting": "[2]", "value": "reduced"}, {"measurement": "efficacy in inflammation mediated dry eye compared with cyclosporine eye drops", "setting": "[3]", "value": "as effective"}, {"measurement": "aggregation", "setting": "[4]; 0.2, 0.4, 0.8, 1.6 and 3.2 mg/ml", "value": "highly aggregated"}, {"measurement": "size of aggregates formed", "setting": "[4]; 1.6 and 3.2 mg/ml, DLS measurements out of range", "value": "greater than 25 million"}, {"measurement": "protein remaining in solution", "setting": "[5]; PBS, 0.4, 0.8, 1.6 and 3.2 mg/ml", "value": "less than 40%"}, {"measurement": "solubility and stability in solution", "setting": "[5]; general statement", "value": "insoluble and prone to aggregation"}]}
